Test results: patent US20150045409A1, “AMIDE COMPOUND AND USE THEREOF FOR PEST CONTROL” (SUMITOMO CHEMICAL COMPANY, LIMITED, priority 2012, published 2015)

Legend:
[1] = tested on: adult common house mosquitos; assay: Spray knockdown test on adult common house mosquitos (Test Examples 5, 6); type: in vivo; conditions: active ingredient 0.02% w/v oil solution, 0.5 ml sprayed, counted after 15 minutes
Procedure: (§1) The formulations of Compounds (2), (7), (48) and (49) of the present invention obtained in Formulation Example 7 were diluted with a mixture solution with a ratio of isopropyl alcohol/deodorized kerosene of 1/9, so as to have a concentration of active ingredient of 0.1% w/v, to prepare a test drug solution.
Ten adult common house mosquitos were released in a polyethylene cup (a bottom diameter of 10.6 cm) which was then capped with 16-mesh nylon gauze. The polyethylene cup was placed on the bottom of a test chamber (bottom: 46 cm×46 cm, height: 70 cm). From a height of 30 cm above the upper surface of the polyethylene cup, 0.5 ml of the test drug solution was sprayed using a spray gun (a spraying pressure of 0.4 kg/cm^2). Immediately after spraying, the cup was taken out from the test container, and after 15 minutes, the number of knockdown insects was counted to obtain a knockdown rate. The knockdown rate was calculated by the following equation.
Knockdown Rate(%)=(Number of Knockdown Insects/Number of Tested Insects)×100
as §1, with “Each of the” for “The”, “(19)” for “(2), (7), (48)”, “(40) to (42)” for “(49)”, “was” for “were”, “0.02%” for “0.1%”, “solution. […]” for “solution.”

[2] = tested on: third-instar larvae of diamondback moth (Plutella xylostella); assay: Cabbage foliar spray test on diamondback moth larvae (Test Example 11); type: in vivo; conditions: 500 ppm spray, 20 ml/cup on cabbage, after 5 days
Procedure: On the other hand, a cabbage was planted in a polyethylene cup and grown until the third true leaf or the fourth true leaf was developed. The test spray solution was sprayed in a ratio of 20 ml/cup on the cabbage. After the drug solution sprayed on the cabbage was dried, 10 third-instar larvae of diamondback moth (Plutella xylostella) were put on the cabbage. After 5 days, the number of diamondback moths was counted, and a controlling value was calculated by the following equation. […] Letters in the formula have the following meanings. Cb: the number of insects in an untreated section before treatment Cai: the number of insects in an untreated section on observation Tb: the number of insects in a treated section before treatment Tai: the number of insects in a treated section on observation

**Q.** For `CCCC[C@@H]1C[C@H]1/C=C/C(=O)NCC1CCOC1` (relative stereo) [Compound (19), (E)-N-(tetrahydrofuran-3-ylmethyl)-3-(trans-2′-butylcyclopropyl)-2-propenamide], which knockdown rate [1] is on record?
**A.** ≥ 90%

**Q.** Which controlling value [2] does the source give for `CCCCC1C(/C=C/C(=O)NCC2CCOCC2)C1(C)C` (stereo not drawn) [Compound (43), (E)-N-(tetrahydropyran-4-ylmethyl)-3-(trans-2′-butyl-3′,3′-dimethylcyclopropyl)-2-propenamide] here?
**A.** 100%
